In patent US10660877B2 (BRISTOL-MYERS SQUIBB COMPANY, priority 2016, dated 2020):
Read-outs that look alike come from different tables or passages of the source.

Key:
human TLR8 = human TLR8 (Homo sapiens (Human), UniProt Q9NR97); assay: TLR8 inhibition reporter assay (HEK-Blue cells, SEAP reporter, R848 stimulation);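 note: compounds tested from 0.05 nM to 50 µM, 22 h at 37 °C, SEAP measured with HEK-Blue Detection, inhibition relative to agonist plus DMSO versus a known inhibitor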
human TLR7 = human TLR7 (Homo sapiens (Human), UniProt Q9NYK1); assay: TLR7 inhibition reporter assay (HEK-Blue cells, SEAP reporter, gardiquimod stimulation); type: cell-based; settings: HEK-Blue cells overexpressing human TLR7, gardiquimod 7.5 μM
Protocol: TLR7/8/9 Inhibition Reporter Assays
Briefly, cells are seeded into Greiner 384 well plates (15000 cells per well for TLR7, 20,000 for TLR8 and 25,000 for TLR9) and then treated with test compounds in DMSO to yield a final dose response concentration range of 0.05 nM-50 μM. […] After a 22 hour incubation at 37° C., 5% CO2, SEAP levels are determined with the addition of HEK-Blue™ Detection reagent (Invivogen), a cell culture medium that allows for detection of SEAP, according to manufacturer's specifications. The percent inhibition is determined as the % reduction in the HEK-Blue signal present in wells treated with agonist plus DMSO alone compared to wells treated with a known inhibitor.

human TLR9 = human TLR9 (Homo sapiens (Human), UniProt Q9NR96); assay: TLR9 inhibition reporter assay (HEK-Blue cells, SEAP reporter, ODN2006 stimulation);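 note: compounds tested over 0.05 nM to 50 µM, 22 h incubation, inhibition taken as SEAP signal drop from agonist plus DMSO wells toward a known inhibitor control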
[1] = read-out: TLR8 IC50, HEK-Blue cells overexpressing human TLR8, R848 15.9 μM
[2] = read-out: TLR9 IC50, HEK-Blue cells overexpressing human TLR9, ODN2006 5 nM
[3] = TLR8 IC50, HEK-Blue cells overexpressing human TLR8, R848 15.9 μM
[4] = TLR9 IC50, HEK-Blue cells overexpressing human TLR9, ODN2006 5 nM

human TLR7, sequence (Q9NYK1 27-1049): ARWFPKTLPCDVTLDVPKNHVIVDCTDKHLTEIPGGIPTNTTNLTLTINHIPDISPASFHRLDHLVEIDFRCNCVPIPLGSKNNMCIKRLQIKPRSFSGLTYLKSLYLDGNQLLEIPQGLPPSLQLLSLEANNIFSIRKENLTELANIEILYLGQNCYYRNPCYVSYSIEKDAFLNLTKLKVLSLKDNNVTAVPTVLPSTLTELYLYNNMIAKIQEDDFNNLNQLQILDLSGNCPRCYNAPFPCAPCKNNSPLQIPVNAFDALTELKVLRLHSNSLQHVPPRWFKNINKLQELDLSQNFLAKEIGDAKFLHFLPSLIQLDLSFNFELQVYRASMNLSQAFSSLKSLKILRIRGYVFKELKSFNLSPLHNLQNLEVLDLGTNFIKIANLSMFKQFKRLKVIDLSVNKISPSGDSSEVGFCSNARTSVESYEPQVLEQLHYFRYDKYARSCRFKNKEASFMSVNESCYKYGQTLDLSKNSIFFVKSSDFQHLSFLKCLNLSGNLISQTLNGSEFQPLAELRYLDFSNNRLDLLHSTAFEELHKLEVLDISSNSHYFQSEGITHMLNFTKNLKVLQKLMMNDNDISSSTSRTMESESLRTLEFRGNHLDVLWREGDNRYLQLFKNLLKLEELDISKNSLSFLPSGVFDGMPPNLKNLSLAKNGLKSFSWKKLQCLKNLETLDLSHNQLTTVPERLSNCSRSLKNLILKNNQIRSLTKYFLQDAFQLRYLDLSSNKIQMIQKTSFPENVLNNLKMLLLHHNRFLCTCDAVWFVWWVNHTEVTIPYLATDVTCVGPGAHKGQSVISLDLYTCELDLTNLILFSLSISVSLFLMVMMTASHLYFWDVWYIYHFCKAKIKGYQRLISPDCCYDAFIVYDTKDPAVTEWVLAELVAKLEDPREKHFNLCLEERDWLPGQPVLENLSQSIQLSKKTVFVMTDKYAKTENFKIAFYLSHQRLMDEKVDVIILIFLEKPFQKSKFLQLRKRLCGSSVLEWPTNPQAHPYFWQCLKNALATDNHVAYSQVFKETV
human TLR9, sequence (Q9NR96 26-1032): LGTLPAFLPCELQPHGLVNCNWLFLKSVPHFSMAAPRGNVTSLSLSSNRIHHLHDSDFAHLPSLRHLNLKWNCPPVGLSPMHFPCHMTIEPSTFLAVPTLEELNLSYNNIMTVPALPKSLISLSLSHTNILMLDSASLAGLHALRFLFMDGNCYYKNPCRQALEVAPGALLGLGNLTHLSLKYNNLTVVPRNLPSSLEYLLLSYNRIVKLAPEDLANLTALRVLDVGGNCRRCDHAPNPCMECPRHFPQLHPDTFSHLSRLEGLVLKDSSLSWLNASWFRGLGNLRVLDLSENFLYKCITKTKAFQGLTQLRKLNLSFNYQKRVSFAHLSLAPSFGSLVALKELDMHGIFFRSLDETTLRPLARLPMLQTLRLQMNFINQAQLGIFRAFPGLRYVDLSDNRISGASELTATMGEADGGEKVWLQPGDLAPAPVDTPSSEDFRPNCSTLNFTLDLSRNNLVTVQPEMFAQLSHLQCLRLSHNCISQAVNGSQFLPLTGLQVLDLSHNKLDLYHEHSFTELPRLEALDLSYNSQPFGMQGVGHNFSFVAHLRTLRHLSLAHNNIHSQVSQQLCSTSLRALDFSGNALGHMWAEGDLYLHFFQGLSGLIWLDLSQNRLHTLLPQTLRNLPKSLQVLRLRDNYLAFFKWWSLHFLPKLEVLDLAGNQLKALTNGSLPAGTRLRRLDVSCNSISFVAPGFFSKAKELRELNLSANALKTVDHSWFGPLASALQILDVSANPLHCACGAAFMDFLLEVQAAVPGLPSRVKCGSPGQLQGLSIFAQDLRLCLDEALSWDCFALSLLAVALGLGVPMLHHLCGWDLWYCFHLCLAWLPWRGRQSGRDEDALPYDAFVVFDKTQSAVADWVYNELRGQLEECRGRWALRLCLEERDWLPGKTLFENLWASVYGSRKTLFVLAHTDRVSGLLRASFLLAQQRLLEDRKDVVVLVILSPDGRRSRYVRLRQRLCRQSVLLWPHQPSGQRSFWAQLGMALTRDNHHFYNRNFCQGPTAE
human TLR8, sequence (Q9NR97 27-1041): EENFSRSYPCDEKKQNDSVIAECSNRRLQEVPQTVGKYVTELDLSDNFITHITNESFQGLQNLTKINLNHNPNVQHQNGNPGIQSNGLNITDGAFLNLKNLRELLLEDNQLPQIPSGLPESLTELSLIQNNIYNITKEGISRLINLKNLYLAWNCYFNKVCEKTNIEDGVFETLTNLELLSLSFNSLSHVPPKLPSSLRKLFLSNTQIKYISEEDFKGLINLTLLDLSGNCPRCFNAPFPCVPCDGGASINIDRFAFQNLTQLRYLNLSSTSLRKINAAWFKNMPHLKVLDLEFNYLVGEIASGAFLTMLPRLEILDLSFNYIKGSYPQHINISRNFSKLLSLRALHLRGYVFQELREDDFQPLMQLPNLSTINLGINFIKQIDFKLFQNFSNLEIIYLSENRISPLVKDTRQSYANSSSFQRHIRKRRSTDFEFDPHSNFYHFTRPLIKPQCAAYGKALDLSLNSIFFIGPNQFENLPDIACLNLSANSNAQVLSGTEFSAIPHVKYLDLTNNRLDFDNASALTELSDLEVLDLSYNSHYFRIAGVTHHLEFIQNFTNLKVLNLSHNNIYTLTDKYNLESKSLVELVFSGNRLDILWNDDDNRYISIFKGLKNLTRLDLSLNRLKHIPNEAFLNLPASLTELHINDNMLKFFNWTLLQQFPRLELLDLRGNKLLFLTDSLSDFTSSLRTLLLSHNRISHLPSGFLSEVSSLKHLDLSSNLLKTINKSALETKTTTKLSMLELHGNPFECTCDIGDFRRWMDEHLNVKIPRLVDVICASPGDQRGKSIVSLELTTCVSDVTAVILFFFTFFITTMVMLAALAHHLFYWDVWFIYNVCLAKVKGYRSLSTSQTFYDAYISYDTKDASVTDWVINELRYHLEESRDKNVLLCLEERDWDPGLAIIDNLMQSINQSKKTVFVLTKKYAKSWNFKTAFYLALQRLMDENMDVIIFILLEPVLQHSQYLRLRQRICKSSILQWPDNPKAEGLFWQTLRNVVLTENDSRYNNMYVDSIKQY

| Compound | IC50 (human TLR8; [1]) | IC50 (human TLR7) | IC50 (human TLR9; [2]) | IC50 (human TLR8; [3]) | IC50 (human TLR9; [4]) |
| --- | --- | --- | --- | --- | --- |
| Cc1cc(-c2[nH]c3ccc(C4CCN(C(=O)C5(C)CCN(C)CC5)CC4)cc3c2C(C)C)cc(C)n1 [Example 176, (1,4-dimethylpiperidin-4-yl)(4-(2-(2,6-dimethylpyridin-4-yl)-3-isopropyl-1H-indol-5-yl)piperidin-1-yl)methanone] | 21.7 nM | 11.1 nM | 663 nM | – | – |
| Cc1cc(-c2[nH]c3ccc(C4CCN(C(=O)C5(C)CCN(C(C)C)CC5)CC4)cc3c2C(C)C)cc(C)n1 [Example 177, (4-(2-(2,6-dimethylpyridin-4-yl)-3-isopropyl-1H-indol-5-yl)piperidin-1-yl)(1-isopropyl-4-methylpiperidin-4-yl)methanone] | 67.2 nM | 13.1 nM | 937 nM | – | – |
| Cc1cc(-c2[nH]c3ccc(C4CCN(C(=O)C5CCNCC5)CC4)cc3c2C(C)C)cc(C)n1 [Example 178, (4-(2-(2,6-dimethylpyridin-4-yl)-3-isopropyl-1H-indol-5-yl)piperidin-1-yl)(piperidin-4-yl)methanone] | 27.3 nM | 5.4 nM | 549 nM | – | – |
| Cc1cc(-c2[nH]c3ccc(C4CCN(C(=O)CN5CC[C@H](N)C5=O)CC4)cc3c2C(C)C)cc(C)n1 [Example 188, (S)-3-amino-1-(2-(4-(2-(2,6-dimethylpyridin-4-yl)-3-isopropyl-1H-indol-5-yl)piperidin-1-yl)-2-oxoethyl)pyrrolidin-2-one] | 12.8 nM | 2.1 nM | 972 nM | – | – |
| Cc1cc(-c2[nH]c3ccc(C4CCN(C(=O)[C@@H]5CC(F)(F)CN5)CC4)cc3c2C(C)C)cc(C)n1 [Example 189, (S)-(4,4-difluoropyrrolidin-2-yl)(4-(2-(2,6-dimethylpyridin-4-yl)-3-isopropyl-1H-indol-5-yl)piperidin-1-yl) methanone] | 74.3 nM | 7 nM | 15100 nM | – | – |
| Cc1cc(-c2[nH]c3ccc(C4CCN(C(=O)[C@@H]5C[C@@H](F)CN5)CC4)cc3c2C(C)C)cc(C)n1 [Example 190, (4-(2-(2,6-dimethylpyridin-4-yl)-3-isopropyl-1H-indol-5-yl)piperidin-1-yl)((2S,4R)-4-fluoropyrrolidin-2-yl)methanone] | 9.6 nM | 1.6 nM | 281 nM | – | – |
| Cc1cc(-c2[nH]c3ccc(C4CCN(C(=O)[C@@H]5C[C@H](F)CN5)CC4)cc3c2C(C)C)cc(C)n1 [Example 196, (4-(2-(2,6-dimethylpyridin-4-yl)-3-isopropyl-1H-indol-5-yl)piperidin-1-yl)((2S,4S)-4-fluoropyrrolidin-2-yl)methanone] | 16.2 nM | 1.2 nM | 195 nM | – | – |
| Cc1cc(-c2[nH]c3ccc(C4CCN(C(=O)C5(C)CCNCC5)CC4)cc3c2C(C)C)cc(C)n1 [Example 197, (4-(2-(2,6-dimethylpyridin-4-yl)-3-isopropyl-1H-indol-5-yl)piperidin-1-yl)(4-methylpiperidin-4-yl)methanone] | 23.9 nM | 2.8 nM | 322 nM | – | – |
| Cc1cc(-c2[nH]c3ccc(C4CCN(C(=O)C5CCOCC5)CC4)cc3c2C(C)C)cc(C)n1 [Example 198, (4-(2-(2,6-dimethylpyridin-4-yl)-3-isopropyl-1H-indol-5-yl)piperidin-1-yl)(tetrahydro-2H-pyran-4-yl)methanone] | 104 nM | 8.9 nM | 30800 nM | – | – |
| Cc1cc(-c2[nH]c3ccc(C4CCN(C(=O)C5CCOC(C(C)C)C5)CC4)cc3c2C(C)C)cc(C)n1 (stereo not drawn) [Example 200, (4-(2-(2,6-dimethylpyridin-4-yl)-3-isopropyl-1H-indol-5-yl)piperidin-1-yl)(2-isopropyltetrahydro-2H-pyran-4-yl) methanone] | 409 nM | 44.4 nM | 11200 nM | – | – |
| Cc1cc(-c2[nH]c3ccc(C4CCN(CC(=O)N5CCC[C@@H](O)C5)CC4)cc3c2C(C)C)cc(C)n1 [Example 209, (R)-2-(4-(2-(2,6-dimethylpyridin-4-yl)-3-isopropyl-1H-indol-5-yl)piperidin-1-yl)-1-(3-hydroxypiperidin-1-yl)ethan-1-one] | 13 nM | 3.5 nM | 604 nM | – | – |
| Cc1cc(-c2[nH]c3ccc(C4CCN(CC(=O)N5CCC[C@H](O)C5)CC4)cc3c2C(C)C)cc(C)n1 [Example 210, (S)-2-(4-(2-(2,6-dimethylpyridin-4-yl)-3-isopropyl-1H-indol-5-yl)piperidin-1-yl)-1-(3-hydroxypiperidin-1-yl)ethan-1-one] | – | 2 nM | – | 6.2 nM | 225 nM |
| Cc1cc(-c2[nH]c3ccc(C4CCN(CC(=O)N[C@H]5CC[C@H](O)CC5)CC4)cc3c2C(C)C)cc(C)n1 [Example 211, 2-(4-(2-(2,6-dimethylpyridin-4-yl)-3-isopropyl-1H-indol-5-yl)piperidin-1-yl)-N-((1r,4r)-4-hydroxycyclohexyl)acetamide] | 4.2 nM | 1.1 nM | 245 nM | – | – |

More lines, now with the values ahead:

| IC50 (human TLR8; [1]) | IC50 (human TLR7) | IC50 (human TLR9; [2]) | IC50 (human TLR8; [3]) | IC50 (human TLR9; [4]) | Compound |
| --- | --- | --- | --- | --- | --- |
| 88.3 nM | 6.2 nM | 43300 nM | – | – | Cc1cc(-c2[nH]c3ccc(C4CCN(C(=O)C(C)(C)O)CC4)cc3c2C(C)C)cc(C)n1 [Example 173, 1-(4-(2-(2,6-dimethylpyridin-4-yl)-3-isopropyl-1H-indol-5-yl)piperidin-1-yl)-2-hydroxy-2-methylpropan-1-one] |
| 81.1 nM | 5.5 nM | 35100 nM | – | – | CC(=O)N1CCC(c2ccc3[nH]c(-c4cc(C)nc(C)c4)c(C(C)C)c3c2)CC1 [Example 174, 1-(4-(2-(2,6-dimethylpyridin-4-yl)-3-isopropyl-1H-indol-5-yl)piperidin-1-yl)ethan-1-one] |
| 7.1 nM | 1.5 nM | 213 nM | – | – | Cc1cc(-c2[nH]c3ccc(C4CCN(C(=O)CCN(C)CCO)CC4)cc3c2C(C)C)cc(C)n1 [Example 175, 1-(4-(2-(2,6-dimethylpyridin-4-yl)-3-isopropyl-1H-indol-5-yl)piperidin-1-yl)-3-((2-hydroxyethyl)(methyl)amino)propan-1-one] |
| – | 0.9 nM | – | 19.7 nM | 323 nM | CNCCC(=O)N1CCC(c2ccc3[nH]c(-c4cc(C)nc(C)c4)c(C(C)C)c3c2)CC1 [Example 183, 1-(4-(2-(2,6-dimethylpyridin-4-yl)-3-isopropyl-1H-indol-5-yl)piperidin-1-yl)-3-(methylamino)propan-1-one] |
| 10.5 nM | 1.7 nM | 971 nM | – | – | CNC(C)(C)C(=O)N1CCC(c2ccc3[nH]c(-c4cc(C)nc(C)c4)c(C(C)C)c3c2)CC1 [Example 187, 1-(4-(2-(2,6-dimethylpyridin-4-yl)-3-isopropyl-1H-indol-5-yl)piperidin-1-yl)-2-methyl-2-(methylamino)propan-1-one] |
| 14.4 nM | 3.5 nM | 317 nM | – | – | CN[C@@H](C)C(=O)N1CCC(c2ccc3[nH]c(-c4cc(C)nc(C)c4)c(C(C)C)c3c2)CC1 [Example 191, (S)-1-(4-(2-(2,6-dimethylpyridin-4-yl)-3-isopropyl-1H-indol-5-yl)piperidin-1-yl)-2-(methylamino)propan-1-one] |
| 9.3 nM | 0.6 nM | 213 nM | – | – | Cc1cc(-c2[nH]c3ccc(C4CCN(C(=O)C(C)(C)N)CC4)cc3c2C(C)C)cc(C)n1 [Example 194, 2-amino-1-(4-(2-(2,6-dimethylpyridin-4-yl)-3-isopropyl-1H-indol-5-yl)piperidin-1-yl)-2-methylpropan-1-one] |
| 54 nM | 6 nM | 5270 nM | – | – | Cc1cc(-c2[nH]c3ccc(C4CCN(C(=O)C5(N)CC5)CC4)cc3c2C(C)C)cc(C)n1 [Example 195, (1-aminocyclopropyl)(4-(2-(2,6-dimethylpyridin-4-yl)-3-isopropyl-1H-indol-5-yl)piperidin-1-yl)methanone] |
| 86.1 nM | 3.6 nM | 46600 nM | – | – | Cc1cc(-c2[nH]c3ccc(C4CCN(C(=O)C5CCOC5)CC4)cc3c2C(C)C)cc(C)n1 (stereo not drawn) [Example 199, (4-(2-(2,6-dimethylpyridin-4-yl)-3-isopropyl-1H-indol-5-yl)piperidin-1-yl)(tetrahydrofuran-3-yl)methanone] |
| 84.1 nM | 5 nM | 5500 nM | – | – | Cc1cc(-c2[nH]c3ccc(C4CCN(C(=O)c5cscn5)CC4)cc3c2C(C)C)cc(C)n1 [Example 201, (4-(2-(2,6-dimethylpyridin-4-yl)-3-isopropyl-1H-indol-5-yl)piperidin-1-yl)(thiazol-4-yl)methanone] |
| 113 nM | 2 nM | 3180 nM | – | – | Cc1cc(-c2[nH]c3ccc(C4CCN(C(=O)c5ccon5)CC4)cc3c2C(C)C)cc(C)n1 [Example 203, (4-(2-(2,6-dimethylpyridin-4-yl)-3-isopropyl-1H-indol-5-yl)piperidin-1-yl)(isoxazol-3-yl)methanone] |
| 62.9 nM | 5.7 nM | 17200 nM | – | – | CNC(=O)C(=O)N1CCC(c2ccc3[nH]c(-c4cc(C)nc(C)c4)c(C(C)C)c3c2)CC1 [Example 204, 2-(4-(2-(2,6-dimethylpyridin-4-yl)-3-isopropyl-1H-indol-5-yl)piperidin-1-yl)-N-methyl-2-oxoacetamide] |
| 76.3 nM | 4.4 nM | 19200 nM | – | – | CNC(=O)C(=O)N1CCC(c2ccc3[nH]c(-c4cc(C)nc(C)c4)c(C(C)C)c3c2)CC1 [Example 205, 2-(4-(2-(2,6-dimethylpyridin-4-yl)-3-isopropyl-1H-indol-5-yl)piperidin-1-yl)-N-methyl-2-oxoacetamide] |
| 100 nM | 5.4 nM | 41900 nM | – | – | CCC(=O)N1CCC(c2ccc3[nH]c(-c4cc(C)nc(C)c4)c(C(C)C)c3c2)CC1 [Example 206, 1-(4-(2-(2,6-dimethylpyridin-4-yl)-3-isopropyl-1H-indol-5-yl)piperidin-1-yl)propan-1-one] |
